Laboratory results as given in ChEMBL document CHEMBL3431459, “Roche carnitine palmitoyltransferase modulator screening data (supplementary data associated with the publication CHEMBL2216752)”.
Converted amounts (≈) assume the structure as drawn.

How the values were obtained:
[1] = SUPPLEMENTARY: Lipophilicity (log D) Determination by high-throughput shake-flask; type: physicochemical; details: octanol/water
[2] = molecular target: T1, Carnitine O-palmitoyltransferase 1, liver isoform (Rattus norvegicus, UniProt P32198); test: (§1) SUPPLEMENTARY: Inhibition of Carnitine palmitoyltransferase 1, liver isoform
T1 sequence (P32198 whole entry): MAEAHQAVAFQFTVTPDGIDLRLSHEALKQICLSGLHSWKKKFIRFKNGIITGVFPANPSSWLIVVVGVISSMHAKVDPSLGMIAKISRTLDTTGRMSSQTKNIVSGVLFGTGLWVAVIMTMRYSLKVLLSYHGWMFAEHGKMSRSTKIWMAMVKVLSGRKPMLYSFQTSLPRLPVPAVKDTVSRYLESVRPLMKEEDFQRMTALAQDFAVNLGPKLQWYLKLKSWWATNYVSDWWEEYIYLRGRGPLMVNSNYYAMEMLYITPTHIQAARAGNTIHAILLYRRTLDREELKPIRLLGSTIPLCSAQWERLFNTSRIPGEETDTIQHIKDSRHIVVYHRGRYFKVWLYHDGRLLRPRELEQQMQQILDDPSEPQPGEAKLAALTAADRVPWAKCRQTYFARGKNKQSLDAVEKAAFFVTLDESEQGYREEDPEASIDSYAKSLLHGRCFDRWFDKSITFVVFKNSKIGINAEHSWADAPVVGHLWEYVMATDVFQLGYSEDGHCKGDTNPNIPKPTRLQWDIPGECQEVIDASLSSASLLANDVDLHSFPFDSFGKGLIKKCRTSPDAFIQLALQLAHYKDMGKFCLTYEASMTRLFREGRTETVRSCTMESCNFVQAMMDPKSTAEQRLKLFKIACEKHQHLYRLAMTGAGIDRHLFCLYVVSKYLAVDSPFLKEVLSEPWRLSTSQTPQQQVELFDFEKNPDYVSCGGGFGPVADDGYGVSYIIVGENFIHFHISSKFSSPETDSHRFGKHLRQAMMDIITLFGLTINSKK

[3] = molecular target: T2, Carnitine O-palmitoyltransferase 1, liver isoform (Homo sapiens, UniProt P50416); test: as §1
T2 sequence (P50416 whole entry): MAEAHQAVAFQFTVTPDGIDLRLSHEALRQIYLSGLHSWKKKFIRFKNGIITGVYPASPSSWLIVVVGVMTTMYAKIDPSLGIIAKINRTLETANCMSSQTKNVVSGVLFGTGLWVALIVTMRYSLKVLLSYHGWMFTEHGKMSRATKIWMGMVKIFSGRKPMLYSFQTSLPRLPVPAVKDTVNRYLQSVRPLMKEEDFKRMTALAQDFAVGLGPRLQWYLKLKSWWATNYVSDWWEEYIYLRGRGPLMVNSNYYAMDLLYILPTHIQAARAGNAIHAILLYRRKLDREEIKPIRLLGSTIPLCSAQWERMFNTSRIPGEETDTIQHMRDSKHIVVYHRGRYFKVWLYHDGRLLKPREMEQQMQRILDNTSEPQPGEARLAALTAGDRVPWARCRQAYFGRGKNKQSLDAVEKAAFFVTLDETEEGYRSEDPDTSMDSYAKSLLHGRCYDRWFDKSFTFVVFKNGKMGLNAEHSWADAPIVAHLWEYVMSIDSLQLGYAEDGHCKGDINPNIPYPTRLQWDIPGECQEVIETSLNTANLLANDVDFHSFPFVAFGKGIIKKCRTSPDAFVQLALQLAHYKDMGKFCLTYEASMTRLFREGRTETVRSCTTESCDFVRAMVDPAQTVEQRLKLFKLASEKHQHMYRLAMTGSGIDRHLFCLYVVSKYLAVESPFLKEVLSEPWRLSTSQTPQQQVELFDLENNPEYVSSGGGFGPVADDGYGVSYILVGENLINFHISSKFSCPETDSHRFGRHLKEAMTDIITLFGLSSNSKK

[4] = SUPPLEMENTARY: PAMPA permeability assay; type: physicochemical; details: read-out: Permeability
[5] = molecular target: T3, Carnitine O-palmitoyltransferase 1, muscle isoform (Homo sapiens, UniProt Q92523); test: SUPPLEMENTARY: Inhibition of Carnitine palmitoyltransferase 1, muscle isoform; parameters: species or system Muscle tissue
T3 sequence (Q92523 whole entry): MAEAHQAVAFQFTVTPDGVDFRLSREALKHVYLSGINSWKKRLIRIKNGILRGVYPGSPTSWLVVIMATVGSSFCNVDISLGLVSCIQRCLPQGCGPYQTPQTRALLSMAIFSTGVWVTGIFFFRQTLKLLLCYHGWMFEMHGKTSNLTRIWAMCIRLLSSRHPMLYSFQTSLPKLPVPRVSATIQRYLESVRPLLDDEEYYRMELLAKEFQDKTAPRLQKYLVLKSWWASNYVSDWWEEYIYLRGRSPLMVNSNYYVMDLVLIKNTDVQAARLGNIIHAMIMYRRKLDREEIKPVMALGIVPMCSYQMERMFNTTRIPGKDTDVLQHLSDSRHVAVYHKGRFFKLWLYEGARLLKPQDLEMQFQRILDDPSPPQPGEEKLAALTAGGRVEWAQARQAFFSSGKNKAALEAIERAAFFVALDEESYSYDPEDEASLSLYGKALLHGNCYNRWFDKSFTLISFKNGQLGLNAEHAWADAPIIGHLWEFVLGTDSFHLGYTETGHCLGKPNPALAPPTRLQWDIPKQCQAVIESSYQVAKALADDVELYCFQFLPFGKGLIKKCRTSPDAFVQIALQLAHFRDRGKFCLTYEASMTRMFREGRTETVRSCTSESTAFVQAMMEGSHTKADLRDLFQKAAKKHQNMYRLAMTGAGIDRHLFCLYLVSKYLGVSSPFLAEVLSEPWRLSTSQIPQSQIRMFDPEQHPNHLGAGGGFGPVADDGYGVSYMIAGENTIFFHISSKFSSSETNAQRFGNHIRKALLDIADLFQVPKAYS

[6] = molecular target: T4, Carnitine O-palmitoyltransferase 2, mitochondrial (Homo sapiens, UniProt P23786); test: (§2) SUPPLEMENTARY: Inhibition of Carnitine palmitoyltransferase 2
T4 sequence (P23786 whole entry): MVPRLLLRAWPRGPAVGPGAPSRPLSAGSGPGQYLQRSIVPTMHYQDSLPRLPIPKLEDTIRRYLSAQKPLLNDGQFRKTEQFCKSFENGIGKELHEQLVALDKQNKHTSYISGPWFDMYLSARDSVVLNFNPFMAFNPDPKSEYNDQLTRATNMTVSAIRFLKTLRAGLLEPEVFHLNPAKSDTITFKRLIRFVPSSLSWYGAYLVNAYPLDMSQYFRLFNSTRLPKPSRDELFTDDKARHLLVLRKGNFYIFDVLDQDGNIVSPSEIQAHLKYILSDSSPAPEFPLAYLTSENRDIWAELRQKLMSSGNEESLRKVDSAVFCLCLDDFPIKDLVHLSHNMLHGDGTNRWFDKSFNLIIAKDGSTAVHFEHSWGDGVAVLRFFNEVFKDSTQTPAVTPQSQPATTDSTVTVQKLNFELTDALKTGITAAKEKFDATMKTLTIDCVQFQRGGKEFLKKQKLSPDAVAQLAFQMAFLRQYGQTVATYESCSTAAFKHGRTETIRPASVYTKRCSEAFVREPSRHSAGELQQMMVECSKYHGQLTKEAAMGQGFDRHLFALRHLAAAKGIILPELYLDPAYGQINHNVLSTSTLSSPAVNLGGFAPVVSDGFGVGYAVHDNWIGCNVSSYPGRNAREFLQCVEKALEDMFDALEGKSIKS

[7] = molecular target: T5, Carnitine O-palmitoyltransferase 2, mitochondrial (Rattus norvegicus, UniProt P18886); test: as §2
T5 sequence (P18886 whole entry): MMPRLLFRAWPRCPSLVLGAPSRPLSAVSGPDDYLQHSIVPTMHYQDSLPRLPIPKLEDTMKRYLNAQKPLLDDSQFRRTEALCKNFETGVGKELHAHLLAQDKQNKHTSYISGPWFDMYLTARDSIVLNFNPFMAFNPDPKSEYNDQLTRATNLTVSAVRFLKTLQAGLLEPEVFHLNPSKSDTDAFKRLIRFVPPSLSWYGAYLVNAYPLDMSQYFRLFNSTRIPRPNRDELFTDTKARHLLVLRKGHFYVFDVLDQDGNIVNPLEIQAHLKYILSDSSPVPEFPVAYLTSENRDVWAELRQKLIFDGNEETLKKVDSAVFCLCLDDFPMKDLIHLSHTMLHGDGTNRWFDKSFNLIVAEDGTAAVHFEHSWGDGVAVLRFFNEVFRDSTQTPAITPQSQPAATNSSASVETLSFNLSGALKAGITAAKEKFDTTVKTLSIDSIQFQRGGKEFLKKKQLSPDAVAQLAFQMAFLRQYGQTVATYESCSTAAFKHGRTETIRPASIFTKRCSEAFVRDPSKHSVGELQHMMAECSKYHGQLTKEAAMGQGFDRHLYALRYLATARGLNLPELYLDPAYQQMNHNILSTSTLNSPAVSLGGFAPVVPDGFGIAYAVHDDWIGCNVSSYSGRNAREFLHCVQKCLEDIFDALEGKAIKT

[8] = SUPPLEMENTARY: Lyophilisation Solubility Assay (LYSA); type: physicochemical; details: read-out: Kinetic_solubility

Row | Structure (SMILES) | logD [1] | IC50 [2] [nM] | IC50 [3] [nM] | Papp [4] [×10⁻⁶ cm/s] | IC50 [5] [nM] | IC50 [6] [nM] | IC50 [7] [nM] | solubility kinetic [8] [µg/mL]
1 | NC(=O)c1cncc(-c2noc([C@H]3COCCN3C(=O)COc3ccccc3)n2)c1 | 1.05 | 1250 | 168 | 2.86 | > 100000 | > 100000 | > 100000 | 191 (≈ 467 µM)
2 | Nc1ccc(-c2noc([C@H]3CCCCN3C(=O)COc3ccccc3)n2)cn1 | 2.62 | 221 | 34.4 | 4.44 | > 100000 | > 100000 | 30200 | 81 (≈ 213 µM)
3 | CC(=O)NCc1cccc(-c2nc([C@H]3CCCCN3C(=O)COc3ccccc3)no2)c1 | 2.64 | 308 | 99.3 | 2.98 | > 100000 | 29100 | > 100000 | 127 (≈ 292 µM)
4 | O=C(O)c1ccc(NC(=O)c2ccc3c(c2)N(Cc2cccc(Cl)c2)C(=O)CS3(=O)=O)cc1 | 0.47 | 184 | 229 | 1.05 | 5170 | 68500 | > 100000 | 26 (≈ 53.6 µM)
5 | COc1ccc(Cl)cc1S(=O)(=O)N1CCOc2ccc(C(=O)Nc3ccc(-c4noc(=O)[nH]4)cc3)cc21 | 2.22 | 152 | 61 | 0.93 | 134 | > 100000 | > 100000 | 1 (≈ 1.84 µM)
6 | COc1ccc(Cl)cc1S(=O)(=O)N1COCc2ccc(C(=O)Nc3nc(CC(=O)O)cs3)cc21 | -0.47 | 82.9 | 54 | 1.31 | 1380 | > 100000 | > 100000 | 7 (≈ 13.4 µM)
7 | COc1ccc(Cl)cc1S(=O)(=O)N1CCc2ccc(C(=O)Nc3ccn(CC(=O)O)n3)cc21 | 1.15 | 99.9 | 84.7 | 0.23 | 8100 | > 100000 | > 100000 | > 526
8 | CN(C)C(=O)c1ccc(-c2noc(C3C4CC4CN3C(=O)COc3ccccc3)n2)cc1 (configuration not stated) | 2.17 | 1090 | 165 | 4.37 | > 100000 | 47100 | 57100 | 147 (≈ 340 µM)
9 | COc1ccc(Cl)cc1S(=O)(=O)N1CCOc2ccc(C(=O)Nc3ccc(CC(=O)O)cc3)cc21 | 0.11 | 70.2 | 96.8 | 1.86 | 827 | > 100000 | > 100000 | 6 (≈ 11.6 µM)
10 | O=C(COc1ccccc1)N1CCCC[C@@H]1c1nc(-c2ccc(Cl)cc2)no1 | > 3 | 228 | 190 | 0.962 | > 100000 | > 100000 | > 100000 | 11 (≈ 27.6 µM)
11 | O=C(O)c1ccc(NC(=O)c2ccc3c(c2)N(S(=O)(=O)c2cccc(Cl)c2)CCS3)cc1 | 1.48 | 43 | 82.2 | 2.81 | 7330 | 1950 | 5640 | 20 (≈ 40.9 µM)
12 | COc1ccc(Cl)cc1S(=O)(=O)c1cn(CCC(=O)O)c2ccc(C(=O)Nc3ccccc3)cc12 | 0.56 | 3 | 7.1 | 0.39 | 9020 | > 100000 | > 100000 | 251 (≈ 489 µM)
13 | O=C(COc1ccccc1)N1CCCC[C@@H]1c1noc(-c2cc([N+](=O)[O-])[nH]n2)n1 | 1.07 | 388 | 140 | 6.99 | > 100000 | > 100000 | > 100000 | 68 (≈ 171 µM)
14 | CCCN(c1cc(C(=O)Nc2ccc(CC(=O)O)cc2)cc2c1OCO2)S(=O)(=O)c1cc(Cl)ccc1OC | 0.87 | 184 | 191 | 3.45 | 955 | > 100000 | > 100000 | 517 (≈ 922 µM)
